The values below come from publication PMC10187093, “Synthesis, in silico modelling, and in vitro biological evaluation of substituted pyrazole derivatives as potential anti-skin cancer, anti-tyrosinase, and antioxidant agents” (Journal of Enzyme Inhibition and Medicinal Chemistry, 2023).

Like-named read-outs stand apart in the source and are kept apart here. A value given as a limit tells only on which side of the number the result lay.

One experiment relates to GFP-A431. The experiment is described as follows: MTT antiproliferative/cytotoxicity assay, A431. As to conditions: for IC50: non-melanoma, MTT, 48 h, read-out: IC50 GFP-A431; for selectivity index (SI) A431: IC50 HaCaT divided by IC50 A431. Type of experiment: cell-based, human. On the procedure: (§1) Human-derived GFP-expressing melanoma A375 and epidermoid carcinoma A431 cell lines were purchased from Angio-Proteomie (Boston, MA). Human melanoma carcinoma SK-MEL-28 and human immortalised keratinocytes (HaCaT) cell lines were acquired from American Type Culture Collection (ATCC; Manassas, VA). […] The growth media of incubated cells were changed every 2–3 days until they attained 70–80% confluence, after which they were sub-cultured for experiments and re-passaging. DMSO was used as the vehicle to prepare a 10 mM stock solution of the test compounds.
(§2) Stock solutions (10 mM) were prepared by dissolving each compound to be screened in DMSO.

In the next experiment the target is T1, mushroom tyrosinase (Agaricus bisporus, UniProt C7FF04).
T1 construct: purchased Sigma-Aldrich Chemical Company (St. Louis, MO) and MP Biomedicals (Irvine, CA)
The experiment is described as follows: In vitro mushroom tyrosinase inhibition assay. It counts as biochemical. Particulars: for IC50: > 500 = not biologically relevant. On the procedure:
The anti-tyrosinase potential of all the synthesised derivatives was determined by an enzymatic tyrosinase inhibition assay based on their ability to inhibit the substrate, L-tyrosine, from binding to the tyrosinase enzyme. […] Test samples were dissolved in DMSO at a concentration of 10 mM and then diluted to different concentrations with phosphate buffer (0.1 M, pH 6.8). Each well contained 40 µL of the sample with 80 µL of phosphate buffer solution (0.1 M, pH 6.8), 40 µL of tyrosinase enzyme (100 units/mL), and 40 µL L-tyrosine (2.5 mM). The mixture was incubated for 30 min at room temperature, and absorbance was measured at 490 nm. Each sample was accompanied by a sample blank containing all components except tyrosinase. […] The percentage of tyrosinase inhibition was calculated as follows: ((ΔAcontrol – ΔAsample)/ΔAcontrol) × 100. IC50 values denoted the sample concentration required to inhibit 50% tyrosinase activity (Table S1).

Experiment [1] is described as follows: DPPH free radical scavenging assay. As to conditions: for Percent Scavenging (DPPH): 1 mM; for IC50: N.A. = No Activity, > 1000 = not biologically relevant, read-out: IC50 Value, DPPH antioxidant activity (Table S4). On the procedure:
An initial screen was done of all 25 derivatives at a concentration of 1 mM. […] Methanol was used as the diluent, and 100 µL of DPPH (200 µM; Sigma-Aldrich, St. Louis, MO) was added to each well. […] The scavenging capacity (SC) was calculated as SC% = ((ΔAcontrol – ΔAsample)/ΔAcontrol) × 100%, where ΔAcontrol was the absorbance of the reagent blank, and ΔAsample was the absorbance of the test samples. The control contained all reagents except the compounds, and all tests were performed in triplicate. Quercetin served as a positive control. The DPPH methanolic solution (1 mL) mixed with DMSO (5 µL) served as a negative control.
In general terms: DPPH is a stable violet radical that fades when it is reduced.

In another experiment the test system is SCC-12. The experiment is described as follows: MTT antiproliferative/cytotoxicity assay, SCC-12. As to conditions: for IC50: non-melanoma, MTT, 48 h, read-out: IC50 SCC-12; for selectivity index (SI) SCC-12: IC50 HaCaT divided by IC50 SCC-12. Type of experiment: cell-based, human. On the procedure:
as §1, §2

The next experiment relates to HaCaT. The experiment is described as follows: MTT cytotoxicity assay, noncancerous HaCaT keratinocytes. It counts as cell-based, human. As to conditions: Homo sapiens, HaCaT; control noncancerous keratinocytes, MTT, 48 h; read-out: IC50 HaCaT. On the procedure:
(§3) Human-derived GFP-expressing melanoma A375 and epidermoid carcinoma A431 cell lines were purchased from Angio-Proteomie (Boston, MA). Human melanoma carcinoma SK-MEL-28 and human immortalised keratinocytes (HaCaT) cell lines were acquired from American Type Culture Collection (ATCC; Manassas, VA). Human cutaneous SCC cell line SCC-12[192] was generously provided by Dr. James G. Rheinwald to Dr. Tatiana Efimova. Except SK-MEL-28, which was cultured in an RPMI-1640 medium supplemented with 5% FBS, all other human immortalised cell lines were grown and maintained in DMEM containing varying percentages of FBS; 5% FBS for A431, SCC-12, and HaCaT lines, and 10% FBS for A375. All culture media were routinely supplemented with 1% PEST 100X (100 U/mL penicillin, 100 μg/mL streptomycin), and cells were cultured in incubators maintained at 37 °C under an atmosphere of 95% humidity, 20% O2, and 5% CO2. The growth media of incubated cells were changed every 2–3 days until they attained 70–80% confluence, after which they were sub-cultured for experiments and re-passaging. DMSO was used as the vehicle to prepare a 10 mM stock solution of the test compounds.
(§4) Stock solutions (10 mM) were prepared by dissolving each compound to be screened in DMSO. From these stock solutions, escalating concentrations were prepared using the corresponding cell growth media as a diluent, and the cells (65–75% confluent) were treated with (0–40 µM) or without the drug in sext- to octuplicate and incubated for 48 h. All treatment protocols and controls were prepared as previously described.
(§5) The potency and cytotoxicity of the test compounds against two cutaneous melanoma (A375 and SK-MEL-28) and two non-melanoma (A431 and SCC-12) SC cell lines in addition to a control immortalised normal human epidermal keratinocytes (HaCaT) cell line were assessed by MTT assay as previously described.
In general terms: Formazan colour is commonly taken as a measure of viable cells.

In another experiment the test system is A375. The experiment is described as follows: MTT antiproliferative/cytotoxicity assay, A375. Type of experiment: cell-based, human. Particulars: melanoma, MTT, 48 h, read-out: IC50 A375. On the procedure:
as §3, §4, §5

For the next experiment, the system named is SK-MEL-28. Kind of experiment: MTT antiproliferative/cytotoxicity assay, SK-MEL-28. It counts as cell-based, human. Particulars: melanoma, MTT, 48 h, read-out: IC50 SKMEL-28. On the procedure: as §3, §4, §5
The mark [2] stands for this setting: 500 µM, single-concentration screen, read-out: % Inhibition of tyrosinase.
Setting [3] is: read-out: IC50 Value, mushroom tyrosinase inhibition (Table S1).

T1 sequence (C7FF04 1-392 limits assumed): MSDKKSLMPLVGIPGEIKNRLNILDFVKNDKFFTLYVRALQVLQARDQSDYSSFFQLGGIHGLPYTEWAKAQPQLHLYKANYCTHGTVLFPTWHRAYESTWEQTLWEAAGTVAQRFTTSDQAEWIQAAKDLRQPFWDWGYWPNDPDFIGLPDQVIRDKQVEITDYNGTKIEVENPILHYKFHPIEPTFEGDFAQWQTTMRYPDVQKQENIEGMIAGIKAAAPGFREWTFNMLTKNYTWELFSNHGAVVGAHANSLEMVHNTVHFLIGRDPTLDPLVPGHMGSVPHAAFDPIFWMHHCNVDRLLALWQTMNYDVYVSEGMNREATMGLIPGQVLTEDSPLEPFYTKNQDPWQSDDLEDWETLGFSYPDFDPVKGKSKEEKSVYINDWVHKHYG

With `O=C1CC(c2ccccc2)=NN1c1ccccc1` [P21], the IC50 in the experiment with GFP-A431 (Homo sapiens, A-431) worked out at 58.6 ± 2.3 µM; against mushroom tyrosinase (IC50 Value, mushroom tyrosinase inhibition (Table S1)) it was 295 µM; in experiment [1] it was 354 µM; in the experiment with SCC-12 (Homo sapiens, SCC12) it was 37.8 ± 3.2 µM; with HaCaT, 50.1 ± 6.5 µM; with A375 (Homo sapiens, A-375, 48 h), 67.8 ± 2.3 µM. In addition, the IC50 in the experiment on SK-MEL-28 (Homo sapiens, SK-MEL-28) was found to be 42.7 ± 4 µM. In addition, the inhibition at 500 µM at mushroom tyrosinase (read-out: % Inhibition of tyrosinase, 500 µM, single-concentration screen) is 88.9 ± 0.4%. Further, in experiment [1], the “Percent Scavenging (DPPH)” value is on record as 73.25%.
Regarding `O=C1CC(c2ccc(Br)cc2)=NN1c1ccc(Br)cc1` [P22], the IC50 with GFP-A431 (Homo sapiens, A-431, 48 h) is 13 µM; in the experiment with GFP-A431, 12.6 ± 1.6 µM; at mushroom tyrosinase (setting [3]) it was > 500 µM; in experiment [1] it was 276 µM; with SCC-12 (Homo sapiens, SCC12, 48 h), 19 µM; in the experiment on SCC-12, 18.7 ± 1.4 µM. Further, the IC50 is 47.6 ± 1.6 µM in the experiment with HaCaT; 29 µM in the experiment with A375 (Homo sapiens, A-375, 48 h); 28.7 ± 1.2 µM in the experiment on A375; 31 µM with SK-MEL-28 (Homo sapiens, SK-MEL-28, 48 h); 31.3 ± 2.4 µM in the experiment on SK-MEL-28. Further, in the experiment with GFP-A431, the “selectivity index (SI) A431” value is recorded as 3.8. The inhibition at 500 µM at mushroom tyrosinase (setting [2]) was determined as 46.9%. In experiment [1], the “Percent Scavenging (DPPH)” value is listed as 77.86%. In the experiment with SCC-12, the “selectivity index (SI) SCC-12” value is 2.6.
As to `O=C1CC(c2ccc(Br)cc2)=NN1c1ccc(C(F)(F)F)cc1` [P23], the IC50 is 23.9 ± 1 µM with GFP-A431 (Homo sapiens, A-431, 48 h); > 500 µM on mushroom tyrosinase (setting [3]); 196 µM in experiment [1]; 21.7 ± 1.9 µM in the experiment on SCC-12 (Homo sapiens, SCC12, 48 h); 40.5 ± 1.5 µM in the experiment on HaCaT; 31.2 ± 1.5 µM with A375 (Homo sapiens, A-375, 48 h). Besides, the IC50 with SK-MEL-28 (Homo sapiens, SK-MEL-28, 48 h) is 27.4 ± 2.3 µM. Further, the “selectivity index (SI) A431” value in the experiment with GFP-A431 was found to be 1.7. The inhibition at 500 µM at mushroom tyrosinase (setting [2]) came out at 37.6%. In addition, in experiment [1], the “Percent Scavenging (DPPH)” value is reported as 77.61%. Further, the “selectivity index (SI) SCC-12” value in the experiment with SCC-12 is given as 1.9.
Turning to `O=C1CC(c2ccc(Br)cc2)=NN1c1ccccc1` [P24], the IC50 in the experiment with GFP-A431 (Homo sapiens, A-431, 48 h) is 18.6 ± 0.9 µM; at mushroom tyrosinase (setting [3]) it was > 500 µM; in experiment [1], 444 µM; in the experiment on SCC-12 (Homo sapiens, SCC12, 48 h), 141 ± 3.9 µM; in the experiment with HaCaT it was 60.4 ± 3.2 µM; in the experiment with A375 (Homo sapiens, A-375, 48 h), 56.4 ± 1.7 µM. Moreover, the IC50 with SK-MEL-28 (Homo sapiens, SK-MEL-28, 48 h) amounted to 54.1 ± 1.9 µM. For the same compound, in the experiment on GFP-A431, the “selectivity index (SI) A431” value came out at 3.3. At mushroom tyrosinase (setting [2]), the inhibition at 500 µM came out at 35.2%. Besides, the “Percent Scavenging (DPPH)” value in experiment [1] worked out at 75.14%. In addition, the “selectivity index (SI) SCC-12” value in the experiment on SCC-12 is given as 0.4.

As usually defined, the IC50 is the concentration at which inhibition is half-maximal.
